# Assay results: EP0384594A1, “Anti-inflammatory aryl derivatives” (THE WELLCOME FOUNDATION LIMITED, priority 1989, dated 1990)
# Where two headings read alike, the source gives them in different places.
# How the values were obtained:
# 5-lipoxygenase [1] = test: Ex vivo inhibition of 5-lipoxygenase (stimulated LTB4 synthesis in blood after dosing), rabbits; conditions: for inhibition of the stimulated ex vivo synthesis of leukotriene B₄ (LTB₄), result in words: rabbits, preliminary studies
# Procedure: After administration of the test compound, the concentration of LTB₄ in the plasma was measured periodically and expressed as a percentage of the mean control value. The procedure used is described in Br. J. Pharmacol. 94, 528 (1988) and may be summarised as follows. Within 2 minutes of collection, duplicate samples (0.5ml) of blood were stimulated with the calcium ionophore A23187 (final concentration 15µg/ml) for 30 minutes at 37 °C. When incubation was complete, the samples were centrifuged (12,000G for 2 minutes) and the cell-free plasma removed. The plasma concentration of LTB₄ was then determined by specific radioimmunoassay. The compounds of Synthetic Examples 1 to 3 all inhibited the stimulated ex vivo synthesis of LTB₄ for several hours after their administration. The compound of Synthetic Example 1, for example, when administered orally to rabbits at a dose of 2mg/kg inhibited LTB₄ synthesis by more than 50% for a period of greater than 16 hours. The same compound when administered orally to rats at a dose of 10mg/kg inhibited LTB₄ synthesis by more than 50% for longer than 10 hours.
# [2] = Anti-oxidant activity: peroxyl radical scavenging, inhibition of peroxidation of linoleic acid
# Procedure: As a measure of anti-oxidant activity, the peroxyl radical scavenging abilities of the compounds of the invention were determined by testing each compound's ability to inhibit the peroxidation of linoleic acid using the method described in Biochem. Pharm. 38, 1465 (1989).
# mice = format: in vivo
# Procedure: The compound of Synthetic Example 1 was administered to mice per orally at doses of up to 300mg/kg and intraperitoneally at doses of up to 100mg/kg.
# 5-lipoxygenase [3] = target: T1, 5-lipoxygenase (Rattus norvegicus, UniProt P12527); test: Ex vivo inhibition of 5-lipoxygenase (stimulated LTB4 synthesis in blood after dosing), rats; conditions: po, administered orally to rats, ex vivo A23187-stimulated blood, read-out: inhibited LTB₄ synthesis
# T1 construct: endogenous in cells; host or cells: whole blood of dosed rats (blood leukocytes)
# T1 sequence (P12527 1-673): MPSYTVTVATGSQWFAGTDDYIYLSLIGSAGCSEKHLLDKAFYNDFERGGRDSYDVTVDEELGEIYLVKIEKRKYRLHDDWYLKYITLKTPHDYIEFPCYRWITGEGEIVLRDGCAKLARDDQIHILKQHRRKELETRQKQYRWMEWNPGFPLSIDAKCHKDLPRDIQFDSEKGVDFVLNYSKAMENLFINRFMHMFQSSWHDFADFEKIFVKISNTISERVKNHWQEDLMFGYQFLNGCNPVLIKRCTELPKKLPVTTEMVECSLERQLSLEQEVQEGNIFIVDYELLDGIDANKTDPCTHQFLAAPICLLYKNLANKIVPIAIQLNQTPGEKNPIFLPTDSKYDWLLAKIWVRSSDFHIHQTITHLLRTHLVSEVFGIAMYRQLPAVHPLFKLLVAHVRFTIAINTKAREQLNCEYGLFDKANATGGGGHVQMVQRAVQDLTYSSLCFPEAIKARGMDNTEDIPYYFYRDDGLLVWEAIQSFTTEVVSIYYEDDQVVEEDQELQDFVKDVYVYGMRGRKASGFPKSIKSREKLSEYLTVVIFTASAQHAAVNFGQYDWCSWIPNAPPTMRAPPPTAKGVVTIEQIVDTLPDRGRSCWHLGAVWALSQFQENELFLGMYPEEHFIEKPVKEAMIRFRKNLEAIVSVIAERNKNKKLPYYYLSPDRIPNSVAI
# Procedure: After administration of the test compound, the concentration of LTB₄ in the plasma was measured periodically and expressed as a percentage of the mean control value. The procedure used is described in Br. J. Pharmacol. 94, 528 (1988) and may be summarised as follows.
# Within 2 minutes of collection, duplicate samples (0.5ml) of blood were stimulated with the calcium ionophore A23187 (final concentration 15µg/ml) for 30 minutes at 37 °C. When incubation was complete, the samples were centrifuged (12,000G for 2 minutes) and the cell-free plasma removed. The plasma concentration of LTB₄ was then determined by specific radioimmunoassay.
# The compounds of Synthetic Examples 1 to 3 all inhibited the stimulated ex vivo synthesis of LTB₄ for several hours after their administration. The compound of Synthetic Example 1, for example, when administered orally to rabbits at a dose of 2mg/kg inhibited LTB₄ synthesis by more than 50% for a period of greater than 16 hours. The same compound when administered orally to rats at a dose of 10mg/kg inhibited LTB₄ synthesis by more than 50% for longer than 10 hours.
# [4] = system: Male New Zealand White rabbits; test: Combination effects with an NSAID: antigen (ovalbumin)-induced arthritis of the knee joint in rabbits; format: in vivo; conditions: for proteoglycan loss from the cartilage, result in words / PROTEOGLYCAN LOSS: 14 days after antigen challenge; for mean leukocyte infiltrate in the synovial fluid, result in words / LEUKOCYTES (CELL NUMBER x 10⁶): 14 days after challenge; for PROTEOGLYCAN LOSS: articular cartilage of arthritic joint versus contralateral joint; for JOINT SWELLING: oral x3/24h: compound A 2mg/kg, indomethacin 1mg/kg; for reduced swelling compared to the vehicle-treated controls: from day 3 onwards, maximum reduction; for Lymphocytes / Total cells: histological evaluation of synovial lining; for LEUKOCYTES (CELL NUMBER x 10⁶): synovial fluid of arthritic joint
# Procedure: Male New Zealand White rabbits (2.5 - 3kg) were immunised with intradermal injections of 4mg of ovalbumin in 1ml of Freund's complete adjuvant. Animals were reimmunised 14 days later in the same way. Five days after the second immunisation, arthritis was induced in the right knee joint by injecting 1ml of a sterile solution of ovalbumin (5mg/ml) into the joint cavity. Joint diameters were measured (on a randomised blind basis) with calipers at frequent intervals after antigen challenge. Animals were killed after 14 days and the joint space was washed with 1ml of saline and the resultant fluid was taken for total and differential leukocyte counts. Sensitised animals were randomly allocated to groups of 5-8. The compound of Synthetic Example 1, (E)-N-{1-Methyl-3-[3-(4-fluorophenoxy)phenyl]prop-2-en-1-yl}-N-hydroxyurea (compound A), was administered in suspension following 18h ball-milling in 0.25% Celacol as vehicle. The non-steroidal anti-inflammatory indomethacin was dissolved in a small volume of 1M Tris buffer pH8 and then made up to volume with 0.25% Celacol. Control animals received 0.25% Celacol. Each animal received an oral dose (approximately 5ml) of vehicle or drug 3 times every 24h. Doses were administered at 8.0am, 4.0pm and 12 midnight for 16-17 days commencing 1h before antigen challenge on day 0. All doses were given orally by stomach tube. The groups were as follows: 1-7: Controls (5ml 0.25% Celacol x3/24h) 8-14: 1mg/kg indomethacin dissolved in 0.25% Celacol x3/24h 15-21: 2mg/kg compound A suspended in 0.25% Celacol x3/24h 22-28: 2mg/kg compound A suspended in 0.25% Celacol plus 1mg/kg indomethacin dissolved in 0.25% Celacol Synovial lining tissue was removed from the joint, fixed, processed, cut and stained for microscopic examination. Histological scores were derived for the total mass of inflamed synovial lining, lymphocyte infiltration and polymorph content. The slides were read on a randomised blind basis. Articular cartilage was dissected from the ends of the femurs and digested with papain prior to measurement of the concentration of sulphated glycosaminoglycans (GAGs). The proteoglycan content was expressed as µg GAG/mg wet weight of cartilage and compared with values obtained with cartilage from the contralateral control joint.
# 5-lipoxygenase [5] = target: T2, 5-lipoxygenase (Homo sapiens, UniProt P09917); test: In vitro inhibition of 5-lipoxygenase, ionophore-stimulated whole human blood; format: cell-based; conditions: read-out: IC₅₀ Whole blood
# T2 construct: The experiment was repeated using ionophore-stimulated whole human blood; endogenous in cells; host or cells: whole human blood (blood leukocytes)
# T2 sequence (P09917 1-674): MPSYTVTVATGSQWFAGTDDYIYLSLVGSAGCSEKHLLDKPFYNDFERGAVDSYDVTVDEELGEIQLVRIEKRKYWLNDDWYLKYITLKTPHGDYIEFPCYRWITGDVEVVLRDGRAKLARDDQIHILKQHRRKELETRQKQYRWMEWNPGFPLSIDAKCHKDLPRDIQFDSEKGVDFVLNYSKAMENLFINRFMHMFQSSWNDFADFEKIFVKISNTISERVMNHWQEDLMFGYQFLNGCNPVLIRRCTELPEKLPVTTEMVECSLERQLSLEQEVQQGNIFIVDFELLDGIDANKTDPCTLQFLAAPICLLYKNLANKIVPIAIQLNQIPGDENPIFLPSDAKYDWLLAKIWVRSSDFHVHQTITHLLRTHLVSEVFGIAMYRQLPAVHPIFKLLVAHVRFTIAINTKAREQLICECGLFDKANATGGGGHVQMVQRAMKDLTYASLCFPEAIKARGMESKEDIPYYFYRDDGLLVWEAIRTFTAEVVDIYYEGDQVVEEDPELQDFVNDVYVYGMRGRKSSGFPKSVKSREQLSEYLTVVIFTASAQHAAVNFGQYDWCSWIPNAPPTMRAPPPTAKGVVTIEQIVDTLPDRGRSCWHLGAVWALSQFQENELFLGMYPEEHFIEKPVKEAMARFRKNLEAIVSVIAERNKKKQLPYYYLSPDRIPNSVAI
# Procedure: Blood from normal aspirin-free volunteers was centrifuged to separate leukocytes from red cells and platelets. A solution of the test compound in DMSO (10µl, final concentration in the range 0.01 - 100µM) was added to cell homogenate (470µl) and the mixture incubated at 37 °C for 5 minutes. Solutions of arachidonic acid in methanol (250µM, 10µl, final concentration 5µM) and calcium chloride in water (100mM, 10µl, final concentration 2mM) were then added simultaneously and the mixture incubated at 37 °C for a further 5 minutes. The reaction was stopped by boiling. Radioimmunoassay was conducted for leukotriene B₄.
# The experiment was repeated using ionophore-stimulated whole human blood.
# [6] = duration of arthritis 14 (days)
Structure (SMILES),"period for which LTB₄ synthesis was inhibited by more than 50% (5-lipoxygenase [1]; administered orally to rabbits, 2mg/kg)","inhibited LTB₄ synthesis (5-lipoxygenase [1]; administered orally to rabbits, 2mg/kg, ex vivo A23187-stimulated blood)","inhibition of the stimulated ex vivo synthesis of leukotriene B₄ (LTB₄), result in words (5-lipoxygenase [1])",apparent rate constant (kAH) for scavenging peroxyl radicals [2],"deaths or serious deleterious effects (mice; intraperitoneally, doses of up to 100mg/kg)","deaths or serious deleterious effects (mice; per orally, doses of up to 300mg/kg)",inhibition at 10 mg/kg (5-lipoxygenase [3]) [%],"proteoglycan loss from the cartilage, result in words [4]","mean leukocyte infiltrate in the synovial fluid, result in words [4]",PROTEOGLYCAN LOSS [4] [%],JOINT SWELLING ([4]; duration of arthritis 1 (day)) [MM],JOINT SWELLING ([4]; duration of arthritis 2 (days)) [MM],JOINT SWELLING ([4]; duration of arthritis 3 (days)) [MM],JOINT SWELLING ([4]; duration of arthritis 8 (days)) [MM],"JOINT SWELLING [4, 6] [MM]",reduced swelling compared to the vehicle-treated controls [4],Lymphocytes [4],Total cells [4],LEUKOCYTES (CELL NUMBER x 10⁶) [4] [x 10⁶],IC50 (5-lipoxygenase [5]) [nM]
"CC(/C=C/c1cccc(Oc2ccc(F)cc2)c1)N(O)C(N)=O (racemic) [Synthetic Example 1, (E)-N-{3-[3-(4-fluorophenoxy)phenyl]-1(R,S)-methylprop-2-en-1-yl}-N-hydroxyurea]",greater than 16 hours,more than 50%,effectively inhibited,0.408,No deaths or serious deleterious effects,No deaths or serious deleterious effects,> 50,reduced proteoglycan loss,slightly reduced,34,4.6,5.2,4.6,3.5,3.2,up to 26%,59,367,6.1,150
"COc1ccc2c(c1)c(CC(=O)O)c(C)n2C(=O)c1ccc(Cl)cc1 [Indomethacin, indomethacin, reference compound]",–,–,–,–,–,–,–,reduced proteoglycan loss,slightly reduced,38,4.3,4.5,3.5,2.6,2.0,up to 53%,51,365,7.3,–
"C[C@H](/C=C/c1cccc(Oc2ccc(F)cc2)c1)N(O)C(N)=O [Synthetic Example 2, (E)-N-{3-[3-(4-fluorophenoxy)phenyl]-1(R)-methylprop-2-en-1-yl}-N-hydroxyurea]",–,–,effectively inhibited,–,–,–,–,–,–,–,–,–,–,–,–,–,–,–,–,80
"C[C@@H](/C=C/c1cccc(Oc2ccc(F)cc2)c1)N(O)C(N)=O [Synthetic Example 3, (E)-N-{3-[3-(4-fluorophenoxy)phenyl]-1(S)-methylprop-2-en-1-yl}-N-hydroxyurea]",–,–,effectively inhibited,–,–,–,–,–,–,–,–,–,–,–,–,–,–,–,–,80
